{"source": "paper PMC4818699", "about": "(Angewandte Chemie (International ed. in English), 2016)", "tested_on": "MoeN5 (MoeN5-CS) (Streptomyces viridosporus)", "sequence (A0A010 1-260)": "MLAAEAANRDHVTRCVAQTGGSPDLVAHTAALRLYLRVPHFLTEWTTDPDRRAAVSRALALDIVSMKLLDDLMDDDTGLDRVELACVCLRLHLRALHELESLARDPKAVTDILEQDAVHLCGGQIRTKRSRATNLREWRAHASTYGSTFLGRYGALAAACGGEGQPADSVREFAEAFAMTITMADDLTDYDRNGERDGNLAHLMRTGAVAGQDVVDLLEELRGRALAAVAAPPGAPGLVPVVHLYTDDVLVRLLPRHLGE", "assay": "X-ray crystal structure of the complex", "format": "binding", "conditions": "allylic site S1, near Asp-rich motifs; also PDB 5B03", "data": [{"compound": "CC(C)=CCC/C(C)=C/COP(=O)(O)OP(=O)(O)O", "note": "[compound 6, geranyl diphosphate]", "values": [{"measurement": "X-ray crystal structure of the complex", "value": "GPP binds to MoeN5-CS close to the Asp-rich domains"}]}]}
